The source of these data is patent US20120129870A1, “PIPERAZINYL DERIVATIVES USEFUL AS MODULATORS OF THE NEUROPEPTIDE Y2 RECEPTOR” (priority 2007, published 2012).

SMILES strings stand for the structures.

The target in assay [1] is T1, NPY Y2 receptor (Homo sapiens, UniProt P49146).
T1 sequence (P49146 1-381): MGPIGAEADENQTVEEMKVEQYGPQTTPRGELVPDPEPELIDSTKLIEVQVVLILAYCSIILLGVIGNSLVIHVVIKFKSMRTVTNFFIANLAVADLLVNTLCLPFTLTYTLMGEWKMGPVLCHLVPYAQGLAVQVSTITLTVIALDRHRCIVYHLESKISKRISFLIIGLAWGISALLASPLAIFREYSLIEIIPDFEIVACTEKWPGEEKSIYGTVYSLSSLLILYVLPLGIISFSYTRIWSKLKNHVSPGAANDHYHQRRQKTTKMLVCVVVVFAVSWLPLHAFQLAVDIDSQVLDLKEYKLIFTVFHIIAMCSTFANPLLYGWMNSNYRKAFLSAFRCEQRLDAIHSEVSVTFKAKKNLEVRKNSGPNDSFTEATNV
In words: Neuropeptide Y2 pKB assay (FLIPR, KAN-Ts cells stably expressing chimeric G proteins). The class given is cell-based. The settings on record: apparent pKB, modified Cheng-Prusoff correction. How it is done:
The assay was performed using the fluorimetric imaging plate reader (FLIPR) format as described in Dautzenberg, F. M., Biochemical Pharmacology 2005, 69, 1493.
KAN-Ts cells stably expressing chimeric G proteins were seeded at a density of 100,000 cells into poly-d-lysine coated 384-well blackwall, clear-bottom microtiter plates (Corning, N.Y.). One day later, the medium was removed and 50 μl loading medium DMEM high glucose, without serum, supplemented with 10 mM HEPES-acid, 0.1% BSA, 5 mM probenecid and 2 μM Fluo-3AM was added. Cells were loaded for 1 h at 37° C., washed twice with 50 μl assay buffer (5 mM HEPES-acid, 140 mM NaCl, 1 mM MgCl2, 5 mM KCl, 10 mM glucose) and then 30 μl assay buffer was added. Cells were further pre-incubated at room temperature before adding agonists or agonists plus antagonists in 20 μl assay buffer and then measured on a T-channel fluorometric imaging plate reader (FLIPR, Molecular Devices, Sunnyvale, Calif.). Antagonistic potency values were converted to apparent pKB values using a modified Cheng-Prusoff correction. Apparent pKB was calculated as pKB=−log IC50/1+[conc agonist/EC50].

Assay [2] concerns the target T1, NPY Y2 receptor. In words: Neuropeptide Y2 radioligand binding assay ([125I]PYY, KAN-Ts membranes). The arrangement: endogenous in cells; host or cells: KAN-Ts cells (membrane preparation). The note with it: KAN-Ts membranes endogenously expressing Y2, [125I]PYY (80 pM), 1 h at rt. The method in brief:
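Membranes from KAN-Ts cells with endogenous Y2 receptors, incubated with 80 pM [125I]PYY ± compound for 1 h at rt in HEPES/NaCl/CaCl2/MgSO4 buffer, then filtered and counted. Nonspecific binding defined with […]. IC50 from sigmoidal fit; Ki = IC50/(1+C/KD).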

For orientation: IC50 means the concentration that gives 50% inhibition. Low readings indicate greater potency in that assay, high ones weaker potency in that assay. Take `CCC(CC)C(=O)Nc1ccc(N2CCN(C(c3ccccc3)c3ncccn3)CC2)c(F)c1` (stereo not drawn) [Compound 40, 2-Ethyl-N-{3-fluoro-4-[4-(phenyl-pyrimidin-2-yl-methyl)-piperazin-1-yl]-phenyl}-butyramide]: the Kb at NPY Y2 receptor [1] was 100 nM. This compound returned an IC50 at NPY Y2 receptor [2] of 52 nM.

`O=C(Nc1ccc(N2CCN(C(c3ccccc3)c3ncco3)CC2)c(F)c1)C1CCCC1` (stereo not drawn) [Compound 54, Cyclopentanecarboxylic acid {3-fluoro-4-[4-(oxazol-2-yl-phenyl-methyl)-piperazin-1-yl]-phenyl}amide]: on NPY Y2 receptor [1], the Kb is 10000 nM. Further, the IC50 at NPY Y2 receptor [2] is 95 nM.

As to `CCC(CC)C(=O)Nc1ccc(N2CCN(C(c3ccccc3)c3noc(C(C)C)n3)CC2)c(F)c1` (stereo not drawn) [Compound 82, 2-Ethyl-N-(3-fluoro-4-{4-[(5-isopropyl-[1,2,4]-oxadiazol-3-yl)-phenyl-methyl]-piperazin-1-yl}-phenyl)-butyramide], the Kb on NPY Y2 receptor [1] is 50.1 nM. On NPY Y2 receptor [2], this compound came in with an IC50 of 22 nM.

In the case of `CCC(CC)C(=O)Nc1ccc(N2CCN(C(c3ccccc3)c3ncco3)CC2)c(C)c1` (stereo not drawn) [Compound 85, 2-Ethyl-N-{3-methyl-4-[4-(oxazol-2-yl-phenyl-methyl)-piperazin-1-yl]-phenyl}-butyramide], the Kb on NPY Y2 receptor [1] is 126 nM. This compound also registered an IC50 at NPY Y2 receptor [2] of 75 nM.

As for `N#Cc1cc(NC(=O)[C@@H]2CCOC2)ccc1N1CCN(C(c2ccccc2)c2ncco2)CC1` (stereo partly drawn) [Compound 90, Tetrahydro-furan-3-carboxylic acid {3-cyano-4-[4-(oxazol-2-yl-phenyl-methyl)-piperazin-1-yl]-phenyl}-amide], the Kb at NPY Y2 receptor [1] was 31.6 nM. The IC50 at NPY Y2 receptor [2] was determined as 38 nM.

In the case of `CC(CC(F)(F)F)C(=O)Nc1ccc(N2CCN(C(c3ccccc3)c3ncco3)CC2)c(C#N)c1` (stereo not drawn) [Compound 110, N-{3-Cyano-4-[4-(oxazol-2-yl-phenyl-methyl)-piperazin-1-yl]-phenyl}-4,4,4-trifluoro-2-methyl-butyramide], the Kb on NPY Y2 receptor [1] is 100 nM. The IC50 on NPY Y2 receptor [2] was determined as 29 nM.

Turning to `Cc1noc(C)c1C(=O)Nc1ccc(N2CCN(C(c3ccccc3)c3ncco3)CC2)c(F)c1` (stereo not drawn) [Compound 113, 3,5-Dimethyl-isoxazole-4-carboxylic acid {3-fluoro-4-[4-(oxazol-2-yl-phenyl-methyl)-piperazin-1-yl]-phenyl}-amide], the Kb on NPY Y2 receptor [1] was 200 nM. Moreover, the IC50 at NPY Y2 receptor [2] stood at 140 nM.

Turning to `CCC(CC)C(=O)Nc1ccc(N2CCN(C(c3cccc(F)c3)c3ncco3)CC2)c(C#N)c1` (stereo not drawn) [Compound 131, N-(3-Cyano-4-{4-[(3-fluoro-phenyl)-oxazol-2-yl-methyl]-piperazin-1-yl}-phenyl)-2-ethyl-butyramide], the Kb on NPY Y2 receptor [1] was 12.6 nM. This compound registered an IC50 at NPY Y2 receptor [2] of 7 nM.

On to `CCC(CC)C(=O)Nc1ccc(N2CCN(C(c3cccc(F)c3)c3ncco3)CC2)c(F)c1` (stereo not drawn) [Compound 132, 2-Ethyl-N-(3-fluoro-4-{4-[(3-fluoro-phenyl)-oxazol-2-yl-methyl]-piperazin-1-yl}-phenyl)-butyramide], for which the Kb at NPY Y2 receptor [1] is 63.1 nM. The same compound gave an IC50 at NPY Y2 receptor [2] of 45 nM.

Take `CCC(CC)C(=O)Nc1ccc(N2CCN(C(c3ccc(F)cc3)c3ncco3)CC2)c(C#N)c1` (stereo not drawn) [Compound 139, N-(3-Cyano-4-{4-[(4-fluoro-phenyl)-oxazol-2-yl-methyl]-piperazin-1-yl}-phenyl)-2-ethyl-butyramide]: at NPY Y2 receptor [1], the Kb is 25.1 nM. Moreover, the IC50 on NPY Y2 receptor [2] came to 21 nM.

Take `CCC(CC)C(=O)Nc1ccc(N2CCN(C(c3ccc(OC)cc3)c3ncco3)CC2)c(C#N)c1` (stereo not drawn) [Compound 141, N-(3-Cyano-4-{4-[(4-methoxy-phenyl)-oxazol-2-yl-methyl]-piperazin-1-yl}-phenyl)-2-ethyl-butyramide]: the Kb on NPY Y2 receptor [1] is 50.1 nM. Also, at NPY Y2 receptor [2], the IC50 turned out to be 29 nM.

With `CCC(CC)C(=O)Nc1ccc(N2CCN(C(c3ccc(C#N)cc3)c3ncco3)CC2)c(C#N)c1` (stereo not drawn) [Compound 145, N-(3-Cyano-4-{4-[(4-cyano-phenyl)-oxazol-2-yl-methyl]-piperazin-1-yl}-phenyl)-2-ethyl-butyramide], at NPY Y2 receptor [1], the Kb is 63.1 nM. The compound further came in with an IC50 on NPY Y2 receptor [2] of 33 nM.

In the case of `CCc1nnc(C(c2ccccc2)N2CCN(c3ccc(NC(=O)C(CC)CC)cc3F)CC2)o1` (stereo not drawn) [Compound 153, 2-Ethyl-N-(4-{4-[(5-ethyl-[1,3,4]-oxadiazol-2-yl)-phenyl-methyl]-piperazin-1-yl}-3-fluoro-phenyl)-butyramide], the Kb at NPY Y2 receptor [1] was 39.8 nM. Also, at NPY Y2 receptor [2], the IC50 was 39 nM.

On to `CCC(CC)C(=O)Nc1ccc(N2CCN(C(c3ccccc3)c3nnc(C(C)C)o3)CC2)c(F)c1` (stereo not drawn) [Compound 160, 2-Ethyl-N-(3-fluoro-4-{4-[(5-isopropyl-[1,3,4]-oxadiazol-2-yl)-phenyl-methyl]-piperazin-1-yl}-phenyl)-butyramide], for which, on NPY Y2 receptor [1], the Kb was 100 nM. In addition, the IC50 at NPY Y2 receptor [2] came out at 43 nM.

Regarding `CCC(CC)C(=O)Nc1ccc(N2CCN(C(c3ccccc3)c3nnc(C(CC)CC)o3)CC2)c(F)c1` (stereo not drawn) [Compound 163, 2-Ethyl-N-[4-(4-{[5-(1-ethyl-propyl)-[1,3,4]oxadiazol-2-yl]-phenyl-methyl}-piperazin-1-yl)-3-fluoro-phenyl]-butyramide], the Kb at NPY Y2 receptor [1] is 100 nM. This compound displayed an IC50 at NPY Y2 receptor [2] of 20 nM.

On to `CCC(CC)C(=O)Nc1ccc(N2CCN(C(c3ccccc3)c3nc4ccccc4o3)CC2)c(F)c1` (stereo not drawn) [Compound 165, N-{4-[4-(Benzooxazol-2-yl-phenyl-methyl)-piperazin-1-yl]-3-fluoro-phenyl}-2-ethyl-butyramide], for which the Kb on NPY Y2 receptor [1] was 100 nM. The IC50 at NPY Y2 receptor [2] was found to be 18 nM.

On to `CCC(CC)C(=O)Nc1ccc(N2CCN(C(c3ccccc3)c3nc4ccccc4o3)CC2)c(C#N)c1` (stereo not drawn) [Compound 166, N-{4-[4-(Benzooxazol-2-yl-phenyl-methyl)-piperazin-1-yl]-3-cyano-phenyl}-2-ethyl-butyramide], for which the Kb on NPY Y2 receptor [1] was 79.4 nM. On NPY Y2 receptor [2], this compound displayed an IC50 of 7 nM.

As for `CCC(CC)C(=O)Nc1ccc(N2CCN(C(c3ccccc3)c3nc4ccccc4s3)CC2)c(F)c1` (stereo not drawn) [Compound 168, N-{4-[4-(Benzothiazol-2-yl-phenyl-methyl)-piperazin-1-yl]-3-fluoro-phenyl}-2-ethyl-butyramide], the Kb at NPY Y2 receptor [1] is 70.8 nM. The compound further showed a half-maximal inhibitory concentration (IC50) on NPY Y2 receptor [2] of 58 nM.

Regarding `CCC(CC)C(=O)Nc1ccc(N2CCN(C(c3ccccc3)c3nc4ccccc4s3)CC2)c(C#N)c1` (stereo not drawn) [Compound 169, N-{4-[4-(Benzothiazol-2-yl-phenyl-methyl)-piperazin-1-yl]-3-cyano-phenyl}-2-ethyl-butyramide], the Kb at NPY Y2 receptor [1] was 50.1 nM. Further, the IC50 at NPY Y2 receptor [2] came out at 39 nM.

Consider `CCC(CC)C(=O)Nc1ccc(N2CCN(C(c3ccccc3)c3cc(C)no3)CC2)c(F)c1` (stereo not drawn) [Compound 230, 2-Ethyl-N-(3-fluoro-4-{4-[(3-methyl-isoxazol-5-yl)-phenyl-methyl]-piperazin-1-yl}-phenyl)-butyramide], for which the Kb on NPY Y2 receptor [1] was 25.1 nM. On NPY Y2 receptor [2], this compound yielded an IC50 of 12 nM.

For the compound `CCC(CC)C(=O)Nc1ccc(N2CCN(C(c3ccccc3)c3noc(CF)n3)CC2)c(F)c1` (stereo not drawn) [Compound 235, 2-Ethyl-N-(3-fluoro-4-{4-[(5-fluoromethyl-[1,2,4]-oxadiazol-3-yl)-phenyl-methyl]-piperazin-1-yl}-phenyl)-butyramide], the Kb at NPY Y2 receptor [1] was 63.1 nM. Also, the IC50 at NPY Y2 receptor [2] was determined as 30 nM.

For the compound `CCc1nc(C(c2ccccc2)N2CCN(c3ccc(NC(=O)C(CC)CC)cc3F)CC2)no1` (stereo not drawn) [Compound 236, 2-Ethyl-N-(4-{4-[(5-ethyl-[1,2,4]-oxadiazol-3-yl)-phenyl-methyl]-piperazin-1-yl}-3-fluoro-phenyl)-butyramide], at NPY Y2 receptor [1], the Kb was 15.8 nM. On NPY Y2 receptor [2], this compound yielded a half-inhibitory concentration (IC50) of 23 nM.

Consider `CCC(CC)C(=O)Nc1ccc(N2CCN(C(c3ccccc3)c3ncco3)CC2)c(Br)c1` (stereo not drawn) [Compound 237, N-{3-Bromo-4-[4-(oxazol-2-yl-phenyl-methyl)-piperazin-1-yl]-phenyl}-2-ethyl-butyramide], for which, on NPY Y2 receptor [1], the Kb is 63.1 nM. At NPY Y2 receptor [2], this compound displayed an IC50 of 16 nM.

`CCC(CC)C(=O)Nc1ccc(N2CCN(C(c3ccccc3)c3noc(-c4cccnc4)n3)CC2)c(F)c1` (stereo not drawn) [Compound 238, 2-Ethyl-N-(3-fluoro-4-{4-[phenyl-(5-pyridin-3-yl-[1,2,4]-oxadiazol-3-yl)-methyl]-piperazin-1-yl}-phenyl)-butyramide]: the Kb at NPY Y2 receptor [1] was 31.6 nM. For the same compound, the IC50 on NPY Y2 receptor [2] was determined as 25 nM.
